Data on one compound can be found in PMC6092045 (Chemical communications (Cambridge, England), 2018).

The target in this test is T1, ERAAP (ER aminopeptidase associated with antigen processing) (Mus musculus, UniProt Q9EQH2).
T1 sequence (Q9EQH2 1-930): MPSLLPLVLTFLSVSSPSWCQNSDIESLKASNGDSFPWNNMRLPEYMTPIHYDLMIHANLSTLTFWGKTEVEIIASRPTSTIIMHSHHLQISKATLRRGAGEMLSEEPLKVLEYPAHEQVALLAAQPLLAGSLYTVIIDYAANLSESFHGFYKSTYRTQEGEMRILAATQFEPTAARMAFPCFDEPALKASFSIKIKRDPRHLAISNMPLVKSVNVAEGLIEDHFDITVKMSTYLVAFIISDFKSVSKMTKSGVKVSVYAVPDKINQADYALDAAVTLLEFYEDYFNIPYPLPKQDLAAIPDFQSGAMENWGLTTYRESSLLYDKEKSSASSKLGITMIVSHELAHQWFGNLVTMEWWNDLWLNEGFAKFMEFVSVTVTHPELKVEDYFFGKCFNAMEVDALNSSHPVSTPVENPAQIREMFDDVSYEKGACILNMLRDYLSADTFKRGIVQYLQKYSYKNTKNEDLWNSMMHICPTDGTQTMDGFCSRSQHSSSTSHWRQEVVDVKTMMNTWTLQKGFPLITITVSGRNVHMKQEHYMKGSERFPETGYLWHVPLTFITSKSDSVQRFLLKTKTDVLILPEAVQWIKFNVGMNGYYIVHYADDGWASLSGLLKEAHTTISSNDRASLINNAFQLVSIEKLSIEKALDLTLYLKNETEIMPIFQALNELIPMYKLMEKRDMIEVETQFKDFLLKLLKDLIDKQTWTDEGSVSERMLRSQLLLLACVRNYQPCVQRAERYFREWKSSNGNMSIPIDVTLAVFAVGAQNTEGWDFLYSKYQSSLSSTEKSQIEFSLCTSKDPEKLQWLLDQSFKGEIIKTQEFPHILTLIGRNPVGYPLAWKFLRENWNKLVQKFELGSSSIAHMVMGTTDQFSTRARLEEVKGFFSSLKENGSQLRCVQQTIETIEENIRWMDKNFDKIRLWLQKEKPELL
The test is described as follows: fluorogenic Ep peptide cleavage assay, dose-response. The format is biochemical.

For orientation: IC50 means the concentration needed to halve the response being measured. A high value points to weaker potency. For the compound `C#CC(=O)c1ccc(Br)cc1F` [A, 1-(4-bromo-2-fluorophenyl)prop-2-yn-1-one], the IC50 is 23 µM.
